From ChEMBL document CHEMBL1150089, “Sodwanones G, H, and I, new cytotoxic triterpenes from a marine sponge” (J Nat Prod, 1995)

Tests used:
Assay type in all cases: functional, cell-based
A549 = assay: Cytotoxicity against human A549 cells after 3 days; conditions: A549, 72 h
P388 = assay: Cytotoxicity against mouse P388 cells after 3 days; conditions: P388, 72 h
SK-MEL-28 = assay: Cytotoxicity against human SK-MEL-28 cells after 3 days; conditions: SK-MEL-28, 72 h
HT-29 = assay: Cytotoxicity against human HT-29 cells after 3 days; conditions: HT-29, 72 h

CC1=C(CC[C@@H]2[C@@]3(CC[C@@H]4OC(C)(C)C(=O)CC[C@]42C)CO3)[C@@]2(C)CCC(=O)C(C)(C)C2=C(O)C1=O [SODWANONE G]
IC50 (A549): 0.2 µM
IC50 (P388): 2 µM
IC50 (SK-MEL-28): 2 µM
IC50 (HT-29): 2 µM

CC1=C(CC[C@@H]2[C@H](C)CC[C@@H]3OC(C)(C)C(=O)CC[C@]32C)[C@@]2(C)CC[C@@H](O)C(C)(C)[C@@H]2CC1=O [SODWANONE H]
IC50 (A549): 0.02 µM
IC50 (P388): 10.5 µM
IC50 (SK-MEL-28): 10.5 µM
IC50 (HT-29): 10.5 µM

CC(C)C(=O)CC[C@@]1(C)[C@H]2CC[C@H](C)[C@]1(CC[C@@]1(C)[C@@H](C)CC[C@@H]3OC(C)(C)[C@]4(O)CC[C@@]31O4)O2 [SODWANONE I]
IC50 (A549): 20 µM
IC50 (P388): 20 µM
IC50 (SK-MEL-28): 20 µM
IC50 (HT-29): 20 µM
